The values below come from US9005670B2, “Use of histone acetyltransferase inhibitors as novel anti-cancer therapies” (The Johns Hopkins University, priority 2010, dated 2015).

Assay [1] concerns the target AANAT (arylalkylamine N-acetyltransferase) (Ovis aries, UniProt Q29495). The assay can be described thus: AANAT coupled spectrophotometric assay. It is filed as biochemical. The following applies: 10 μM compound; read-out: Percent inhibition of acetyltransferase, AANAT.
In assay [2] the target is PCAF (p300/CBP-associated factor) (Homo sapiens, UniProt Q92831). The assay can be described thus: PCAF coupled spectrophotometric assay. The following applies: 10 μM compound; read-out: Percent inhibition of acetyltransferase, PCAF. It is filed as biochemical.
Procedure: PCAF reactions were performed in 100 mM HEPES, pH 7.9, and contained 200 μM TPP, 5 mM MgCl2, 1 mM DTT, 50 mM NaCl, 0.05 mg/mL BSA, 200 μM NAD, 2.4 mM α-KG, 30 μM acetyl-CoA, 0.037 units α-KGDH, 3.3% DMSO, and 10 μM inhibitor. Reactions took place at 30° C. Reactions were initiated by addition of 10 nM PCAF and were followed at 340 nm over the linear portion of the curve below 10% turnover.
The test system of assay [3] is histone H3 and H4 acetylation in C3H 10T1/2 mouse fibroblasts. The assay can be described thus: histone acetylation Western blot in mouse cells. Conditions: 25 μM, 1-3 hours. It is filed as cell-based. The text has this: Histones in mammalian cells show characteristic rates of turnover of acetylation, with a majority showing slower rates and a very minor fraction showing very fast turnover. This latter fraction has been associated with gene activation, and is defined by rapid hyperacetylation in the presence of deacetylase inhibitors such as Trichostatin A (TSA). In addition to SDS gels (FIG. 9A), Acid-Urea gels (AU, FIG. 9B) were used, on which loss of a positive charge upon lysine acetylation retards migration, producing a ladder of bands corresponding to integral changes in acetylation.
C3H 10T1/2 mouse fibroblasts were grown in DMEM with 10% FCS at 37° C. with 5% CO2. Confluent cultures were rendered quiescent in DMEM with 0.5% FCS for 18-20 h prior to treatment. […] Antibodies were used at the following concentrations: total H3 (1:10000; ab7834; Abcam); H4K12ac (1:2500; 06-761; Upstate). Rabbit anti-H3K9ac (1:10000) antibodies were generated in-house. Histones were isolated from cells by acid extraction, separated by SDS and acid-urea polyacrylamide gel electrophoresis and analyzed by Western blotting.
For orientation: A western blot detects proteins with antibodies after separation by electrophoresis.

In assay [4] the test system is three melanoma and three non-small cell lung cancer lines. Put plainly: 3H-thymidine incorporation, melanoma and lung cancer lines. It is filed as cell-based, human. Conditions: 24 hours; C646 10 μM, Lys-CoA-Tat 25 μM. The text has this:
The following cell lines were used: WM35 (melanoma), WM983A (melanoma), 1205Lu (melanoma), H23 (NSCLC), H838 (NSCLC), and H1395 (NSCLC). Melanoma cells were maintained in Dulbecco's Modified Eagle Medium. NSCLCs were maintained in RPMI Medium 1640. Both types of media were supplemented with 10% fetal bovine serum (FBS), penicillin-streptomycin, and L-glutamine. Media, pen-strep, and L-glutamine were purchased from Invitrogen. FBS was purchased from Gemini Bio-Products (#100106). […] Compound stocks (10-20 mM in anhydrous DMSO) were directly added to culture media at desired concentrations. DMSO concentration was kept constant at 0.2% between different treatment conditions. Cells were seeded in 96-well plates at ˜5000 cells per well on average, depending on each cell line's doubling time. After attachment, cells were treated with p300 inhibitors, control compounds, or DMSO for 24 h. After treatment, ^3H-thymidine (1 mCi/ml stock) was added to media at 10 μCi/ml final concentration. Cells were incubated for an additional 5 hours, then trypsinized and collected onto a filter mat using a Cell Harvester (PerkinElmer). Radioactivity was measured with a MicroBeta plate reader (PerkinElmer). Each sample was tested in triplicate.

The next assay has as its system U87 glioblastoma cells. The assay can be described thus: AlamarBlue growth inhibition, U87. It is filed as cell-based. The following applies: U87, 72 hours. As to the method: (§1) Dose response curves were generated using the AlamarBlue® assay (Invitrogen, Carlsbad, Calif.).
(§2) When inhibition was assessed using the AlamarBlue® assay (Invitrogen, Carlsbad, Calif.), cells were initially seeded at 500 cells per well in a 96-well plate. AlamarBlue® is a non-toxic reagent that measures cellular metabolic activity. Its main ingredient is resazurin, a non-fluorescent indicator dye that is reduced to bright red-fluorescent resorufin in metabolically active cells. AlamarBlue® was added to growth medium at 1/10 of the total volume (e.g., 20 μl in 200 μl total volume). […] Fluorescence reading was taken from the same plate every day for 5 days to ensure that the saturation point was not reached. Fluorescence intensity is proportional to the number of live cells in the plate.

In the next assay the test system is D54 glioblastoma cells. Put plainly: AlamarBlue growth inhibition, D54. Type of assay: cell-based. The following applies: D54, 72 hours. As to the method:
as §1, §2
On the technique in general: Resazurin is reduced to fluorescent resorufin, in cell work by metabolically active cells.

The test system of another assay is WM35 melanoma cells. The assay can be described thus: senescence-associated beta galactosidase staining. It is filed as cell-based, human. The following applies: 72 hours, low and high serum concentrations. As to the method:
FIG. 14A includes scatter plots. […] WM35 melanoma cells were also treated with camptothecin as a positive control for apoptosis. FIGS. 14B and 14C include images of the treated cells stained for senescence-associated beta galactosidase.

Chain of PCAF (p300/CBP-associated factor) (Q92831 493-658 limits assumed, species assumed): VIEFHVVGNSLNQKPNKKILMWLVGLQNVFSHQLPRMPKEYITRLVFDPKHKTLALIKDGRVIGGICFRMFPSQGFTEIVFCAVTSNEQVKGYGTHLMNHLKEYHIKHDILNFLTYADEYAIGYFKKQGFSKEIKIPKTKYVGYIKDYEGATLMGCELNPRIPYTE
Chain of AANAT (arylalkylamine N-acetyltransferase) (Q29495 whole entry): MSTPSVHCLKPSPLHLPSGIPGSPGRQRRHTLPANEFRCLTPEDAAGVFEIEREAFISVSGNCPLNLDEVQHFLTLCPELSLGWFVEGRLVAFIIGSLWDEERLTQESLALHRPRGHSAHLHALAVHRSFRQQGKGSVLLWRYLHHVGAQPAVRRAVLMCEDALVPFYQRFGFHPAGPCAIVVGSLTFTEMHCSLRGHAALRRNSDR

For orientation: inhibition means the change of the read-out against control, counted positive when it falls. A word on the IC50: it is the concentration that inhibits the measured activity by half. A low value points to greater potency. On to `CC1=NN(c2ccc(C(=O)O)cc2)C(=O)C1=Cc1ccc(-c2cc(C)c(C)cc2[N+](=O)[O-])o1` [Compound C646, 4-(4,5-dihydro-3-methyl-4-((5-(4,5-dimethyl-2-nitrophenyl)furan-2-yl)methylene)-5-oxopyrazol-1-yl)benzoic acid], for which the inhibition at 10 µM in assay [1] and in assay [2] was below 10% throughout. Further, the “basal acetylation levels of H3 and H4” value in assay [3] is “slightly diminished”. Besides, in assay [3] (TSA 33 nM final 30 min), the “TSA-inducible acetylation of histones H3 and H4” value is given as “virtually completely inhibited”. The 3H-thymidine incorporation entry in assay [4] was “capable of reducing ^3H-thymidine incorporation in several of these human cancer lines”. Further, the IC50 in the assay on U87 glioblastoma cells was determined as 15.1 µM; in the assay on D54 glioblastoma cells it was 9.3 µM. The senescence entry in the assay on WM35 melanoma cells is “induced sensecence in WM35 cells”.
